Literature values as cited in patent EP1677774B1, “CITICOLINE-BASED COMPOSITION IN COMBINATION WITH VITAMINS FOR THE PREVENTION AND TREATMENT OF EYE PATHOLOGIES” (Bausch & Lomb IOM S.p.A., priority 2003, dated 2005).

Tests used:
glaucomatous patients = settings: intramuscular administration

In the case of `C[N+](C)(C)CCOP(=O)(O)OP(=O)([O-])OC[C@H]1O[C@@H](n2ccc(N)nc2=O)[C@H](O)[C@@H]1O` [CDP-choline, cytidine-5'-diphosphocholine], the “effect on the optic nerve (perimetric measures)” value (glaucomatous patients; long-term clinical studies) is listed as “positive effect on the damaged optic nerve”, the “retinal and supraretinal signal conduction” value (glaucomatous patients; short-term clinical study) is listed as “functional improvement” and the “metabolic fate after administration” value (intravenous or oral administration) is listed as “immediately hydrolysed and converted into the two circulating metabolites cytidine and choline”. The “calculated bioavailability for oral administration” value (oral compared with intravenous administration) was “virtually the same as the one calculated for intravenous administration”.
